Results as given in ChEMBL document CHEMBL6109084 (Eur J Med Chem, 2025).
Converted amounts (≈) assume the structure as drawn.

What was measured:
Mus musculus [1] = experiment: Antithrombotic activity in po dosed FeCl3-induced carotid arterial thrombosis C57BL/6J mouse model assessed as increase in mean blood flow velocity measured after 0.5 hrs; type: functional, organism-based; details: dose 5-30 mg/kg
Mus musculus [2] = experiment: Antithrombotic activity in FeCl3-induced carotid arterial thrombosis C57BL/6J mouse model assessed as increase in blood flow velocity at 10 mg/kg, po measured after 2 to 4 hrs; type: functional, organism-based; details: time 2-4 hrs
[3] = Acute toxicity in C57BL/6J mouse assessed as pathological changes in heart at 60 to 100 mg/kg, po administered as single dose for 14 days by H and E staining based analysis; type: organism-based; details: in vivo, 336 h, dose 60-100 mg/kg, time 14 day
[4] = Acute toxicity in C57BL/6J mouse assessed as effect on spleen weight at 60 to 100 mg/kg, po measured after 24 hrs; type: organism-based; details: in vivo, dose 60-100 mg/kg
[5] = Apparent permeability in MDCK-MDR1 cells; type: ADME, cell-based, Canis lupus familiaris; details: dog
[6] = Acute toxicity in C57BL/6J mouse assessed as effect on kidney weight at 60 to 100 mg/kg, po measured after 24 hrs; type: organism-based; details: in vivo, dose 60-100 mg/kg
[7] = Acute toxicity in C57BL/6J mouse assessed as effect on heart weight at 60 to 100 mg/kg, po measured after 24 hrs; type: organism-based; details: in vivo, dose 60-100 mg/kg
Oryctolagus cuniculus [8] = experiment: Antithrombotic activity in FeCl3-induced carotid arterial thrombosis male New Zealand white rabbits model assessed as reduction in wet thrombus weight at 6 mg/kg, iv preincubated for 30 mins followed by FeCl3 application for 5 mins and measured after 30 mins relative to control; type: functional, organism-based; details: time 65.0 min
[9] = Acute toxicity in C57BL/6J mouse assessed as effect on serum ALP level at 60 to 100 mg/kg, po administered as single dose for 14 days; type: organism-based; details: in vivo, 336 h, dose 60-100 mg/kg, time 14 day
Plasminogen = Plasminogen (Homo sapiens, UniProt P00747); experiment: Inhibition of plasmin (unknown origin) using PyroGlu-Phe-Lys-pNA.HCl as substrate incubated for 30 mins followed by substrate addition and measured after 60 mins by microplate reader analysis
[10] = Acute toxicity in C57BL/6J mouse assessed as effect on serum AST level at 60 to 100 mg/kg, po administered as single dose for 14 days; type: organism-based; details: in vivo, 336 h, dose 60-100 mg/kg, time 14 day
Coagulation factor XII = target: T1, Coagulation factor XII (Homo sapiens, UniProt P00748); experiment: Inhibition of FXIIa (unknown origin) using H-D-ProPhe-Arg-pNA.2HCl as substrate incubated for 30 mins followed by substrate addition and measured after 60 mins by microplate reader analysis
T1 sequence (P00748 whole entry): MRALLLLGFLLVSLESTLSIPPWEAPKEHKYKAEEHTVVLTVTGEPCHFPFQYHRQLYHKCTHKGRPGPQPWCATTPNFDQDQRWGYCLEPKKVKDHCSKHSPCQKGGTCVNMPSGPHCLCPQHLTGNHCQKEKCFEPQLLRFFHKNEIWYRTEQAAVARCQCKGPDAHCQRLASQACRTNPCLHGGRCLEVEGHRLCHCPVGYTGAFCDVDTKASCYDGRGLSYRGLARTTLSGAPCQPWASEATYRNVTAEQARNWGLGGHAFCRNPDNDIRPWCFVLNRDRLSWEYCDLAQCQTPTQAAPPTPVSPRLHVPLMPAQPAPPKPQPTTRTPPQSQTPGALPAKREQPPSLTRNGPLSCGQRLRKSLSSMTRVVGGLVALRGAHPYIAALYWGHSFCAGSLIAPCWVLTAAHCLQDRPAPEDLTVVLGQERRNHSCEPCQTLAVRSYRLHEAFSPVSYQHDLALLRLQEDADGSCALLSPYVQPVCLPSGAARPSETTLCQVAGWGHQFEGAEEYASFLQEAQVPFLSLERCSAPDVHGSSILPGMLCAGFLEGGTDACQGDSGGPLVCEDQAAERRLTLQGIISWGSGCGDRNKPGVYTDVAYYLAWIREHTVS

Plasma [11] = experiment: Anticoagulant activity in citrated human plasma assessed as prolongation of activated partial thromboplastin time at 1 uM incubated for 3 mins by aPTT reagent based automated coagulometric analysis relative to control; type: functional; details: 0.05 h
physchem = details: aqueous medium, pH 7.4
Description: Aqueous solubility of the compound in DMSO at pH 7.4 incubated for 12 hrs by turbidimetric based UV spectrophotometric analysis

[12] = Selectivity index, ratio of IC50 for inhibition of tPA (unknown origin) using H-D-Ile-Pro-Arg-pNA-2HCl as substrate to IC50 for inhibition of human FXIa using p-Glu-Pro-Arg-pNA.HCl as substrate
Chymotrypsin = Chymotrypsin (Homo sapiens, UniProt Q99895+P17538+P40313+Q6GPI1); experiment: Inhibition of chymotrypsin (unknown origin) using N-Suc-Ala-Ala-Pro-Phe-pNA as substrate incubated for 30 mins followed by substrate addition and measured after 60 mins by microplate reader analysis; type: protein assay
[13] = Acute toxicity in C57BL/6J mouse assessed as pathological changes in liver at 60 to 100 mg/kg, po administered as single dose for 14 days by H and E staining based analysis; type: organism-based; details: in vivo, 336 h, dose 60-100 mg/kg, time 14 day
[14] = Acute toxicity in C57BL/6J mouse assessed as allergic reactions at 60 to 100 mg/kg, po administered as single dose for 14 days; type: organism-based; details: in vivo, 336 h, dose 60-100 mg/kg, time 14 day
Oryctolagus cuniculus [15] = experiment: Antithrombotic activity in FeCl3-induced carotid arterial thrombosis male New Zealand white rabbits model assessed as reduction in wet thrombus weight at 2 mg/kg, iv preincubated for 30 mins followed by FeCl3 application for 5 mins and measured after 30 mins relative to control; type: functional; parameters: scale not given: the % may be the effect or the level left; details: time 65 min, 1.083 h
[16] = Acute toxicity in C57BL/6J mouse assessed as pathological changes in spleen at 60 to 100 mg/kg, po administered as single dose for 14 days by H and E staining based analysis; type: organism-based; details: in vivo, 336 h, dose 60-100 mg/kg, time 14 day
Plasma kallikrein = Plasma kallikrein (Homo sapiens, UniProt P03952); experiment: Inhibition of PKal (unknown origin) using H-D-Pro-Phe-Arg-pNA.2HCl as substrate incubated for 30 mins followed by substrate addition and measured after 60 mins by microplate reader analysis
Oryctolagus cuniculus [17] = experiment: Antithrombotic activity in FeCl3-induced carotid arterial thrombosis male New Zealand white rabbits model assessed as reduction in dry thrombus weight at 2 mg/kg, iv preincubated for 30 mins followed by FeCl3 application for 5 and measured after 45 mins relative to control; type: functional; parameters: scale not given: the % may be the effect or the level left; details: time 80 min, 1.333 h
[18] = Acute toxicity in C57BL/6J mouse assessed as effect on lung weight at 60 to 100 mg/kg, po measured after 24 hrs; type: organism-based; details: in vivo, dose 60-100 mg/kg
[19] = Acute toxicity in C57BL/6J mouse assessed as effect on liver weight at 60 to 100 mg/kg, po measured after 24 hrs; type: organism-based; details: in vivo, dose 60-100 mg/kg
Plasma [20] = experiment: Anticoagulant activity in mouse plasma assessed as prolongation of activated partial thromboplastin time incubated for 3 mins by aPTT reagent based automated coagulometric analysis; type: functional; details: 0.05 h
Mus musculus [21] = experiment: Antithrombotic activity in po dosed FeCl3-induced carotid arterial thrombosis C57BL/6J mouse model assessed as increase in peak velocity measured after 0.5 hrs; type: functional, organism-based; details: dose 5-30 mg/kg

Sequence of Plasma kallikrein (P03952 20-390 limits assumed): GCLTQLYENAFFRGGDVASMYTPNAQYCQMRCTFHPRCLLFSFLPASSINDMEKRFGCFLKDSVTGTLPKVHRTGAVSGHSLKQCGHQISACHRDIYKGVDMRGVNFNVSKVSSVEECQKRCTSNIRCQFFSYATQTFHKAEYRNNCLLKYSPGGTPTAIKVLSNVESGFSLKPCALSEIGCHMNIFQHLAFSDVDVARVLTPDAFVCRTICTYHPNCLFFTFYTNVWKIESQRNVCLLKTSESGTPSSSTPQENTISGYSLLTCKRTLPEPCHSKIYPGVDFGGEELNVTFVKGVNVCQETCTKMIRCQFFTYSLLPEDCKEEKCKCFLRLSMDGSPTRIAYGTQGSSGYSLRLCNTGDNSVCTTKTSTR
Sequence of Plasma kallikrein (P03952 391-638 limits assumed): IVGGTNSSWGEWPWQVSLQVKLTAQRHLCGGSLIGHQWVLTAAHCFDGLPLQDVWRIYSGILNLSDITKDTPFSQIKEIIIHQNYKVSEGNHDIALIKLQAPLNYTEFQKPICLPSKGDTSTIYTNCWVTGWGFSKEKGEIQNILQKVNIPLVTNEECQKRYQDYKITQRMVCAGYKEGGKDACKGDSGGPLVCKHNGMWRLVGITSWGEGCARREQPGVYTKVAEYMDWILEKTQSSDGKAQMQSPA
Sequence of Plasminogen (P00747 97-580 limits assumed): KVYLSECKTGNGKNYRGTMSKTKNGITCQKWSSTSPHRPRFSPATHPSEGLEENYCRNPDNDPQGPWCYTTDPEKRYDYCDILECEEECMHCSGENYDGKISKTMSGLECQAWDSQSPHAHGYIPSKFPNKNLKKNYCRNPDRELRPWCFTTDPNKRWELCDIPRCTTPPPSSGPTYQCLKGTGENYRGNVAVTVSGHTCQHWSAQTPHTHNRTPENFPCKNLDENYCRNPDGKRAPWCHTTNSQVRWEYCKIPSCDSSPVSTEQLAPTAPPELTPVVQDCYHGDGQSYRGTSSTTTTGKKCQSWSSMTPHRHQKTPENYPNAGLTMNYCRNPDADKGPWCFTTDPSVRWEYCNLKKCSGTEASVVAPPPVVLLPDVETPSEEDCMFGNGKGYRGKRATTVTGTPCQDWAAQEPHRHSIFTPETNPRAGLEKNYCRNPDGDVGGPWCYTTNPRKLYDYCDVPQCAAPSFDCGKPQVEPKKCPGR
Sequence of Plasminogen (P00747 581-810 limits assumed): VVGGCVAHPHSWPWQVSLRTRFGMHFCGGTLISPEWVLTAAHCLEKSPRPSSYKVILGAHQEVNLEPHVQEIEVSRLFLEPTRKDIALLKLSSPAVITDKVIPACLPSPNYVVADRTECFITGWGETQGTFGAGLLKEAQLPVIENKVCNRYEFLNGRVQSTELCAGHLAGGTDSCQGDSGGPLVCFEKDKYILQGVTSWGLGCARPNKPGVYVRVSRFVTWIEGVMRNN

With `COc1cn(Cc2cc(-c3ccc(N)nc3F)ccn2)c(=O)cc1-c1cc(Cl)ccc1-n1cnnn1` the Activity (Mus musculus [1]) was “Dose-dependent-effect”, the Activity (Mus musculus [2]) was “Active; Pronounced Increase Observed Compared To Compound F” and the Activity [3] was “Non-toxic”. For the same molecule, the Activity [4] was “Non-toxic”, the Papp [5] was 0.5 ×10⁻⁶ cm/s and the Activity [6] was “Non-toxic”. For the same molecule, the Activity [7] was “Non-toxic”, the Activity (Oryctolagus cuniculus [8]) was “Active; Outperformed Asundexian Reducing Thrombus Weight” and the Activity [9] was “Non-toxic”. For the same molecule, the IC50 (Plasminogen) was > 1000 nM, the Activity [10] was “Non-toxic” and the IC50 (Coagulation factor XII) was > 1000 nM. For the same molecule, the Activity (Plasma [11]) was 247.3%, the solubility kinetic at 12 h (physchem) was 122 µg/mL (≈ 242 µM) and the Ratio IC50 [12] was > 1000. The IC50 (Chymotrypsin) was > 1000 nM, the Activity [13] was “Non-toxic” and the Activity [14] was “Non-toxic”. The Activity (Oryctolagus cuniculus [15]) was >50%, the Activity [16] was “Non-toxic” and the IC50 (Plasma kallikrein) was 222 nM. The Activity (Oryctolagus cuniculus [17]) was >50%, the Activity [18] was “Non-toxic” and the Activity [19] was “Non-toxic”. For the same molecule, the EC1.5 (Plasma [20]) was 1.6 µM and the Activity (Mus musculus [21]) was “Dose-dependent-effect”.
